“And” between values parts separate entries of the source, which are not always exact repeats. Equal values may be shown once. The source made the active and inactive calls.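 Rule for the calls: active = compounds giving half or more protection of infected cells from virus-caused growth loss, again on retest; inactive = the rest.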 Where a SMILES comes first, the peptide text is derived from it. [ ]: non-standard residue; d: D form. The star is where a group is joined. ξ: configuration not given here. Abu = CC[CH](N)C(=O)O; Bz = O=C(c1ccccc1)*; ξC = NC(CS)C(=O)O

The subject of the test is CEM cells HIV-1 protection, formazan growth assay. Kind of test: NCI AIDS Antiviral Assay. The following applies: for IC50: measured here: growth of uninfected CEM cells. The method in brief:
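Protection of CEM cells against HIV-1 measured as cell growth via soluble formazan read-out, with five concentrations tested on both infected and uninfected cells; failure to protect may reflect toxicity.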

`CC12CCCC(C#N)(C1)OC2=O` (configuration not stated): the outcome was inactive.
Usually EC50 stands for the concentration needed to bring the measured effect to its halfway point. As usually defined, the IC50 is the concentration that gives 50% inhibition. Turning to `COc1cc(O)c2c(=O)c3ccccc3n(C)c2c1`, the EC50 is over 200 µM and the IC50 was found to be 11.2 µM.
On to `CC1=C/C(=C(\c2ccc(N(C)C)cc2)c2ccc([N+](C)(C)C)cc2)C=CC1=[N+](C)C`, for which the outcome was inactive.
Turning to `Cc1nn(-c2ccccc2)c2[nH]c(=S)cnc12`, the EC50 is over 200 µM and the IC50 came out at 87.1 µM.
On to `C=CCC1[C@@H](C(C)(C)C(C(C)=O)C(=O)C(=O)OC)OC(C(C)(C)C)N1C(=O)OC` (some centres not stated), for which the EC50 was over 63.1 µM and the IC50 is over 63.1 µM.
With `O=C1CC2CCC(C1)S2=O` (configuration not stated), the EC50 was over 200 µM and the IC50 was over 200 µM.
As for `CC(=O)c1cccc(NC(=O)C(=O)C(C(=O)NN)c2ccccc2)c1` (configuration not stated), the EC50 was over 55 µM and the IC50 was over 55 µM.
As for `CCc1cccc(C(C)C)c1C1C(=O)C(=O)N(c2nc3ccccc3s2)C(=O)C1=O`, the result was inactive.
With `CC1(CC2=C(C(=O)NCCO[Si](C)(C)C(C)(C)C)C3(OCCO3)C2=O)OCCO1`, the EC50 is over 200 µM and the IC50 was over 200 µM.
With `O=C(O)CC(NC(=O)/C(=C/c1ccccc1O)NC(=O)c1ccccc1)C(=O)O` (configuration not stated), the EC50 is over 200 µM and the IC50 was 110 µM.
For `CCOC(=O)C1(Cc2ccc3c(c2)CCC3)Cc2cc3c(cc2C1)CCC3`, the EC50 was over 200 µM and the IC50 came out at 15.5 µM.
With `C[N+]1(C)CCC(OC(=O)C(O)(c2ccccc2)C2CCCC2)C1` (configuration not stated), the EC50 was over 200 µM and the IC50 is over 200 µM.
As for `CCOP(=O)(OCC)/C(C#N)=C/c1ccc(CO)o1`, the EC50 is over 871 µM and the IC50 was determined as 178 µM.
In the case of `NC1=Nc2cc(C(F)(F)F)ccc2Sc2nc3ccccc3n21`, the EC50 was over 200 µM.
With `O=C(O)CCCNS(=O)(=O)c1ccccc1`, the result was inactive.
For the compound `Cc1cc(C)nc(NS(=O)(=O)c2ccc(NC(=O)c3ccc(Cl)c4c(Nc5ccc(S(=O)(=O)Nc6cc(C)on6)cc5)c5ccccc5nc34)cc2)n1`, the EC50 is over 46.8 µM and the IC50 was over 46.8 µM.
Turning to `Cc1cccc(C(=O)O)c1C(=O)c1cccc2ccccc12`, the result was inactive.
Regarding `CNC(=O)N(C(C)(C)C)S(=O)(=O)c1ccc(Cl)cc1`, the outcome was inactive.
Turning to `COC(=O)C(CS)NC(=O)CNC(=O)c1ccccc1` (configuration not stated) (Bz-Gly-[ξC]-OMe), the EC50 was over 851 µM and the IC50 is 46.8 µM.
For `Cc1cn(C2CC(CCCO)C(CO)O2)c(=O)[nH]c1=O` (configuration not stated), in that order: over 871 µM and over 871 µM.
As for `N#CC(C#N)=C(N)/C(C#N)=C/c1ccc2[nH]ccc2c1`, the EC50 was over 200 µM and the IC50 was over 200 µM.
As to `CCCC(S(=O)(=O)c1ccccc1)S(=O)(=O)c1ccccc1`, the result was inactive.
Take `CCOC(=O)CC1CCN(C(=O)c2ccccc2)C2Cc3c([nH]c4ccccc34)C12C[N+](=O)[O-]` (configuration not stated): the EC50 was over 200 µM and the IC50 came to 85.1 µM.
For `O=C(NC(=Nc1ccccc1)SCSC(=Nc1ccccc1)NC(=O)c1c(Cl)cccc1Cl)c1c(Cl)cccc1Cl`, in that order: over 200 µM and 14.1 µM.
For `O=[N+]([O-])c1cccc(S(=O)(=O)c2ccc(F)c([N+](=O)[O-])c2)c1`, in that order: over 200 µM and 0.501 µM.
With `Cc1cc2c(=O)c3ccc(Cl)cc3[nH]c2c(C(=O)O)c1C`, the result was inactive.
On to `COC(=O)c1c(C)cc(C)cc1OC`, for which the EC50 is over 200 µM and the IC50 came to 151 µM.
In the case of `CCN(CC)CCNc1ccc(C)c2sc3ccccc3c(=O)c12`, the EC50 was over 200 µM and the IC50 worked out at 11 µM.
For the compound `COc1ccc(CN2CCCN(Cc3ccc(OC)cc3)C2c2cc([N+](=O)[O-])ccc2O)cc1`, the EC50 is over 200 µM and the IC50 was 28.8 µM.
For `COc1ccc(Cc2nnc(Nc3ccc(Br)cc3)[nH]c2=O)cc1OC`, in that order: over 200 µM and 33.9 µM.
Turning to `O=c1ccc2cc([N+](=O)[O-])ccc2o1`, the EC50 was over 646 µM and the IC50 stood at 363 µM.
For `Cc1cc2c(cc1C)NC(=O)C(NC(=O)c1ccc(Cl)cc1)C=N2` (configuration not stated), in that order: over 200 µM and over 200 µM.
For `CNC(=O)CCCNC(=O)CCCC(=O)N(C)C`, in that order: over 200 µM and over 200 µM.
In the case of `COC(=O)C1(NC(=O)C(N)CC(=O)O)CC1(C)C` (configuration not stated), the EC50 is over 200 µM and the IC50 was over 200 µM.
For the compound `CCCCCCCCCCCCC(Br)C(=O)OCC1OC(n2cc(C)c(=O)[nH]c2=O)CC1N=[N+]=[N-]` (configuration not stated), the EC50 was 0.0977 µM and the IC50 is 3.39 µM.
As to `O=C1CSC(c2ccccc2)N1c1ccc(-c2ccc(-n3c(-c4ccccc4)nc4ccccc4c3=O)cc2)cc1` (configuration not stated), the EC50 is over 200 µM and the IC50 came to 44.7 µM.
Take `OCC(O)C(O)C(O)c1nn(-c2ccccc2)c2nc3cc(Cl)c(Cl)cc3nc12` (configuration not stated): the outcome was inactive.
In the case of `COC1C(OC(=O)/C=C/C=C/C=C/C=C\C(=O)O)CCC2(CO2)C1C1(C)OC1CC=C(C)C` (configuration not stated), the EC50 is 49 µM and the IC50 is over 200 µM.
For `NCCC=C(c1cc(Cl)c(O)c(C(=O)O)c1)c1cc(Cl)c(O)c(C(=O)O)c1`, the EC50 is 151 µM and the IC50 was over 200 µM.
For `CNS(=O)(=O)NN(C)S(=O)(=O)c1ccc(C)cc1`, the EC50 was over 617 µM and the IC50 was over 200 µM.
Regarding `CCC(N)C(=O)NC(C(=O)NC(CC(C)C)C(=O)NC(CC(N)=O)C(=O)NC(Cc1ccccc1)C(=O)O)C(C)O` (configuration not stated) (H-[Abu]TLNF-OH; configuration not given here), the outcome was inactive.
For the compound `CC(C)(C)OC(=O)CN1CCN(CC(=O)N2CCN(C(=O)OCc3ccccc3)CC2)CCN(CC(=O)OC(C)(C)C)CCN(CC(=O)N2CCN(C(=O)OCc3ccccc3)CC2)CC1`, the EC50 is over 100 µM and the IC50 was 1.29 µM.
Regarding `CC(C)CCCC(C)[C@H]1CCC2[C@@H]3CCC4Nc5c(cnn5-c5ccccc5)C[C@]4(C)C3CC[C@@]21C` (some centres not stated), the outcome was inactive.
Regarding `CC(=O)NC(CCCOC(C)=O)C(=O)NC(CCCOC(C)=O)C(=O)NC(CCCOC(C)=O)C(=O)NC(Cc1ccc([N+](=O)[O-])cc1)C(=O)NCC(=O)OCc1ccccc1` (configuration not stated), the EC50 is over 200 µM and the IC50 was over 200 µM.
On to `O=C(O)c1ccccc1C(=O)NC(Cc1cnc[nH]1)C(=O)O` (configuration not stated), for which the EC50 is over 200 µM and the IC50 was over 200 µM.
On to `O=C1/C(=C/c2cccs2)NC(=S)N1CN1CCCC(CO)C1` (configuration not stated), for which the EC50 was over 200 µM and the IC50 stood at 44.7 µM.
For the compound `CCOC(=O)c1nc2cc(C(F)(F)F)ccc2nc1Nc1cc(OC)c(OC)c(OC)c1`, the outcome was inactive.
On to `C=C(Br)N(CC)CC`, for which the EC50 was over 251 µM and the 50% inhibitory concentration (IC50) is over 251 µM.
With `CO/C(=N\N=C(/C)C(F)(F)F)c1ccncc1`, the EC50 is over 200 µM and the IC50 is over 200 µM.
For the compound `CCNc1ccc2c(c1)C(=O)N(OS(C)(=O)=O)C2=O`, the result was inactive.
`C/C=C1\CN(C)C2Cc3c([nH]c4ccccc34)C(c3cc4c5c([nH]c4cc3OC)C3(C(=O)OC)CC4CC(CC)C3N(CC5)C4)CC1C2C(=O)OC` (configuration not stated): the result was inactive.
In the case of `Clc1ccc(CCc2ccncn2)c(Cl)c1`, the EC50 is over 398 µM and the IC50 came out at 38 µM.
For `COc1cc(Nc2cnc3cc(C(F)(F)F)ccc3n2)cc(OC)c1OC`, in that order: over 50.1 µM and over 50.1 µM.
`CC1(C)CC(=O)C(CC2C(=O)CCCC2=O)C(=O)C1`: the EC50 is over 955 µM and the IC50 was determined as 891 µM.
`O=C1C=CC=C/C1=C1\N=C(c2ccccc2OCC(=O)c2ccc(Br)cc2)SS1`: the EC50 was over 50.1 µM and the IC50 came to 19.5 µM.
In the case of `COC(=O)C1=NN2c3ccccc3C(=O)OCCC2C1` (configuration not stated), the EC50 was over 200 µM and the IC50 is over 200 µM.
Consider `NC(=S)/N=C/c1c(O)c2ccccc2oc1=O`, for which the EC50 is over 55 µM and the IC50 is over 55 µM.
`CCOC(=O)CCC[P+](c1ccccc1)(c1ccccc1)c1ccccc1`: the EC50 is over 200 µM; the IC50 is 22.4 µM and 7.76 µM.
Take `CCCCCCCCCCn1cccc1/C=C/c1ccc(/C=C/c2cccn2CCCCCCCCCC)cc1`: the outcome was inactive.
In the case of `CN1C(=S)N2CCCCCCCC2c2c1nc(CCl)[nH]c2=O` (configuration not stated), the EC50 was over 200 µM and the IC50 is 6.92 µM.
For `CC1(O)CC2(O)C=CC3=C(C(=O)c4cccc(O)c4C3=O)C2(O)C(=O)C1O` (configuration not stated), in that order: over 676 µM and 0.339 µM.
For `Clc1cc2nnn(C3CCCCO3)c2cc1Cl` (configuration not stated), the EC50 was over 200 µM and the IC50 is over 200 µM.
Take `COc1ccc(/C=C2\CCS(=O)(=O)c3ccccc3C2=O)cc1OC`: the EC50 was over 100 µM and the IC50 was 11.2 µM.
For `C#CC(O)/C=C/C(O)CCCC(O)CC#CC(O)C#CCCCCC(O)/C=C/CCCCCC(=O)CCCCCCCCCCCCCC(O)C(O)C#CC(=O)O` (configuration not stated), in that order: over 50.1 µM and 28.8 µM.
As for `CSc1n[nH]c(N)c1C(=O)Nc1ccccc1`, the EC50 is over 186 µM and the IC50 turned out to be 117 µM.
As to `CC(C)C12C=CC(C)(CC1)n1c(=O)c3cc4ccccc4cc3c(=O)n12` (configuration not stated), the EC50 was over 4.17 µM and the IC50 was over 4.17 µM.
For `CCOC(=O)C(=Cc1ccc(Oc2ccccc2)cc1)C(=O)OCC`, the EC50 was over 11.2 µM and the IC50 is over 11.2 µM.
As for `CCCc1cc2c(=O)c(C(=O)OC)c[nH]c2cc1N(CC)CC`, the EC50 is over 200 µM and the IC50 was over 200 µM.
Turning to `Cc1ccc(S(=O)(=O)n2nc(Oc3ccc(Cl)c(Cl)c3)nc2N)cc1`, the EC50 is over 3.63 µM and the IC50 is over 3.63 µM.
Consider `O=c1c2cc3c(=O)n(-c4ccccc4Cl)c(=O)c3cc2c(=O)n1-c1ccccc1Cl`, for which the EC50 is over 40.7 µM and the IC50 was over 40.7 µM.
For the compound `O=C(CC(O)(c1ccccc1)c1ccc(Cl)cc1)NC(=O)c1ccccc1O` (configuration not stated), the EC50 is over 13.2 µM and the IC50 is over 13.2 µM.
Regarding `CCN(CC)CCN(C)CC(C)(C)C(=O)/C=C/c1ccccc1`, the outcome was inactive.

The values above are taken from PubChem BioAssay AID179 (DTP/NCI, 2004).
